The structures appear in SMILES notation. In brackets after ≈: the same amount, converted by molar mass.

What all share (assay type): functional
The subject of one assay is Escherichia coli. As to the kind of experiment: Antimicrobial activity against Escherichia coli.
The subject of the next assay is Staphylococcus aureus. Nature of the assay: Antimicrobial activity against Staphylococcus aureus.
The subject of another assay is Pseudomonas aeruginosa. Nature of the assay: Antimicrobial activity against Pseudomonas aeruginosa.

Consider `CCN1CCN(c2cc3c(cc2F)c(=O)c(C(=O)O)cn3C2CC2)CC1` [ENROFLOXACIN], for which the MIC in the assay with Escherichia coli came to 1 µg/mL (≈ 2.78 µM); in the assay on Staphylococcus aureus, 8 µg/mL (≈ 22.3 µM); against Pseudomonas aeruginosa, 1 µg/mL (≈ 2.78 µM).

The MIC is the least concentration at which growth counts as inhibited. Read a high MIC as a need for much substance.

The record behind these values is ChEMBL document CHEMBL1139086, “Synthesis, characterization, antibacterial activity, and interaction with DNA of the vanadyl-enrofloxacin complex” (2007).
